By IC50 is commonly meant the concentration needed to halve the response being measured. Higher therefore signals lower potency.

Experiment [1] addresses T1, minke whale NIS (wNIS) (Balaenoptera acutorostrata, UniProt A0A384B8D1).
T1 sequence (A0A384B8D1 1-642): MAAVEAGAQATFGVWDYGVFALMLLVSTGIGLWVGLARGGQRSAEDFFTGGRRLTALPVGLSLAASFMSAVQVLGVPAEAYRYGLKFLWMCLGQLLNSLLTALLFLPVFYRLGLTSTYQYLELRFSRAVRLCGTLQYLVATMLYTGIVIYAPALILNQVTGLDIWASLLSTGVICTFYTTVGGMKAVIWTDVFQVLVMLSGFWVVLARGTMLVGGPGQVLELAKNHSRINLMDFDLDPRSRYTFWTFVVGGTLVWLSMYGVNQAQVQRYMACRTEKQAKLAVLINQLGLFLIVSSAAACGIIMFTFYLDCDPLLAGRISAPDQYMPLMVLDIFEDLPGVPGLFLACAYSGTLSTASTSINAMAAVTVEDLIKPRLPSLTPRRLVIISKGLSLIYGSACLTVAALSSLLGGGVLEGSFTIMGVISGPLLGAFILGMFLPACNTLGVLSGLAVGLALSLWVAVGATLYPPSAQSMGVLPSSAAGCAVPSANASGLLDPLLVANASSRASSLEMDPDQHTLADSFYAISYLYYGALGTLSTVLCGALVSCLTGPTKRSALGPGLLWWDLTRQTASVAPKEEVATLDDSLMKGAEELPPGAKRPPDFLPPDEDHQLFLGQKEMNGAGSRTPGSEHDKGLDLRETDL
Kind of experiment: inhibition of […]mTcO4 uptake in transduced HeLa cells. Type of experiment: cell-based.

Experiment [2] addresses T2, human NIS (hNIS) (Homo sapiens, UniProt Q92911).
T2 sequence (Q92911 1-643): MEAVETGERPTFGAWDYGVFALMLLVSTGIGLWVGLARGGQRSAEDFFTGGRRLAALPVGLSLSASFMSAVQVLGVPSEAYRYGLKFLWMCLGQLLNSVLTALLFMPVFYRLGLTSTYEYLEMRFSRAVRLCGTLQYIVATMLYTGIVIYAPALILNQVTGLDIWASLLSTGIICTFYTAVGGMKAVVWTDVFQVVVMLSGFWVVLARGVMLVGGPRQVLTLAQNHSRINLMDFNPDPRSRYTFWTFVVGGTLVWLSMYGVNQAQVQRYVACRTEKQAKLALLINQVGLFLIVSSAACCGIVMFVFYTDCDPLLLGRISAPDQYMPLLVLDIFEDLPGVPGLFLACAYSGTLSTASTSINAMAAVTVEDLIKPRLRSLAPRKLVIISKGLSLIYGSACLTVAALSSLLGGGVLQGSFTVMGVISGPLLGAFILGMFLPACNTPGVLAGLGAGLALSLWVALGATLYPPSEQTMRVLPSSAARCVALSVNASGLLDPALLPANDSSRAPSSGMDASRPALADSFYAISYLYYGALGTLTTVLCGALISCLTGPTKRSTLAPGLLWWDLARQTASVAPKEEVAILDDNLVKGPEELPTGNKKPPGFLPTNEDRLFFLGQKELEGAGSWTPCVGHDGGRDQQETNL
The experiment is described as above. Type of experiment: cell-based.

For the molecule `[O-][Cl+3]([O-])([O-])O` [perchlorate], the results for the IC50 in experiment [1] and in experiment [2] were 2860 nM and 195 nM, respectively.

(Values after paper PMC7791078 (Molecular Therapy, 2020).)
